According to patent US10118954B2, “Apelin analogues” (University of Ulster, priority 2014, dated 2018):

Legend:
[1] = system: high fat fed NIH Swiss mice; assay: 28 day long-term study, twice daily i.p. administration; assay type: in vivo; conditions: for Percentage fat mass compared to high-fat fed controls: DEXA; for Glucose tolerance and plasma insulin excursion following an i.p. and oral glucose load: after the 28 day treatment period
From the text: NIH Swiss mice (Harlan UK Ltd., Blackthorne, UK) were derived from a nucleus colony obtained from the National Institute of Health, Bethesda, Md., USA. One group of mice were maintained on a standard rodent diet (10% fat, 30% protein, 60% carbohydrate; percent of total energy 12.99 kJ/g, Trouw Nutrition, Cheshire, UK) and used as a model of normal glycaemia. Other NIH Swiss mice were maintained on a high fat diet (45% fat, 20% protein, 35% carbohydrate; percent of total energy 26.15 […], UK) from 8 weeks of age for 150 days to produce a model of diet induced obesity-diabetes. […] Drinking water and diet were freely available. All animal studies were performed in accordance with the UK Animals (Scientific Procedures) Act 1986. […] Following the run-in period, normal control (n=8) and high-fat fed mice (n=8) received twice daily (09:00 and 17:00 h) i.p. administration of saline vehicle (0.9% NaCl (w/v)) for 28 days. […] Blood samples for glucose and plasma insulin measurement were collected at intervals throughout the study from the cut tail vein of conscious mice. […] Glucose was measured using an Ascensia Contour meter and blood was collected and processed for plasma insulin analysis by radioimmunoassay. Body weight and fat mass was also assessed using the PIXImus DEXA scanner whilst energy expenditure, intake, food intake and feeding bouts were assessed using the CLAMS metabolic chamber. HbA1c was analysed post 28 days using Bayer A1C Now^+ Multi Test meter. Lipid profile test was obtained by using the iLab analyser. Cholesterol, triglyceride and HDL-cholesterol levels were measured, in plasma (3 μl), using the iLab analyser. LDL-cholesterol levels were obtained using the Friedewald equation=total cholesterol-HDL-(triglycerides/3).

[2] = Degradation of apelin peptides by plasma from fasted normal NIH Swiss mice (rp-HPLC, MALDI-TOF MS); assay type: in vitro ADME; conditions: for half-life at 263 µg/mL / remaining at 4 h, 263 µg/mL: NIH Swiss, mouse, plasma, pH 7.4
Description: Degradation of Apelin Peptides by Plasma from Fasted Normal NIH Swiss Mice […] The enzymatic reaction was stopped by adding 50 μl of 10% TFA (0.1% v/v; Sigma-Aldrich Ltd, (Poole, Dorset, UK) and frozen at -20° C. until separation. The terminated reaction products were then applied to an analytical Vydac C-8 column (4.6×150 mm; Phenomenex, Macclesfield, Cheshire, UK) for rp-HPLC analysis. The absorbance was monitored at 214 nm using a […] UV 2000 detector (Thermoquest Limited, Manchester, UK) and the traces were recorded by Thermo Electron ChromQuest data collection software (version 4). HPLC peak fractions were collected manually and subjected to MALDI-TOF mass spectrometry for peptide identification. Degradation profile of various apelin-13 related analogues: plasma incubations (4 h) were separated on a Vydac C-8 analytical HPLC column and all peaks were collected prior to analysis by MALDI-TOF mass spectrometry. Degradation fragments, actual molecular weights (Mr) and retention times (RT) are shown. Theoretical molecular weights of each fragment are shown in brackets. […] Degradation fragments, theoretical molecular weights (Mr) and retention times (RT) are shown. Theoretical molecular weights of each fragment are shown in brackets.

[3] = system: NIH Swiss mice fed a high-fat diet for 150 days; assay: Acute and delayed i.p. glucose tolerance test, blood glucose and plasma insulin; assay type: in vivo
Description: Plasma glucose and plasma insulin concentrations were measured prior to and after i.p. administration of glucose alone (18 mmol/kg body weight), or in combination with apelin analogues (25 nmol/kg body weight) in 18 h fasted mice fed a high-fat diet for 150 days. Values represent mean±SEM for eight mice (n=8). *P<0.05, **P<0.01 and ***P<0.001 compared to glucose alone. FIG. 6 illustrates effect of i.p. administration of glucose alone (18 mmol/kg body weight), ([…])apelin-13 and ([…])apelin-13 alone or in combination (each 25 nmol/kg body weight) on (A) blood glucose and (B) plasma insulin in 18 h fasted mice fed a high-fat diet for 150 days. Values represent mean±SEM for eight mice (n=8). *p<0.05 and **p<0.01 compared to glucose alone, ^+P<0.05 compared to ([…])apelin-13, ^∇P<0.05 and ^∇∇P<0.01 compared to ([…])apelin-13. FIG. 10 illustrates tests conducted 2 h after administration of apelin related analogues (25 nmol/kg body wt) in 18 h fasted mice fed a high-fat diet for 150 days. (A) Blood glucose and (B) plasma insulin was measured before and after i.p. administration of glucose (18 mmol/kg body wt) alone or in combination with apelin analogues. Values represent mean±SEM for eight mice (n=8). *P<0.05 and **P<0.01 compared to glucose alone. FIG. 11 illustrates tests conducted 8 h after administration of apelin related analogues (25 nmol/kg body wt) in 18 h fasted mice fed a high-fat diet for 150 days. (A) Blood glucose and (B) plasma insulin was measured before and after i.p. administration of glucose (18 mmol/kg body wt) alone or in combination with apelin analogues. Values represent mean±SEM for eight mice (n=8). *P<0.05 and **P<0.01 compared to glucose alone. FIG. 12 illustrates acute effects of fatty acid modified apelin analogues on glucose-lowering and insulin release in high fat fed Swiss NIH mice with dietary-induced diabetes. (A) Blood glucose and (B) plasma insulin concentrations were measured prior to and after i.p. administration of glucose alone (18 mmol/kg body weight), or in combination with apelin analogues (25 nmol/kg body weight) in 18 h fasted mice fed a high-fat diet for 150 days. Values represent mean±SEM for eight mice (n=8). *P<0.05, compared to glucose alone. FIG. 13 illustrates tests conducted 16 h after administration of fatty acid apelin analogues (25 nmol/kg body wt) in mice fed a high-fat diet for 150 days. (A) Blood glucose and (B) plasma insulin was measured before and after i.p. administration of glucose (18 mmol/kg body wt) alone or in combination with apelin analogues. Values represent mean±SEM for eight mice (n=8). *P<0.05, **P<0.01 and ***P<0.001 compared to glucose alone. NIH Swiss mice (Harlan UK Ltd., Blackthorne, UK) were derived from a nucleus colony obtained from the National Institute of Health, Bethesda, Md., USA. One group of mice were maintained on a standard rodent diet (10% fat, 30% protein, 60% carbohydrate; percent of total energy 12.99 kJ/g, Trouw Nutrition, Cheshire, UK) and used as a model of normal glycaemia. Other NIH Swiss mice were maintained on a high fat diet (45% fat, 20% protein, 35% carbohydrate; percent of total energy 26.15 […], UK) from 8 weeks of age for 150 days to produce a model of diet induced obesity-diabetes. […] All mice were housed in an air-conditioned room maintained at 22±2° C. with a 12 h light: 12 h dark cycle (08:00-20:00 h), were singly caged, and selected for experimental groups according to body weight and non-fasted blood glucose. Drinking water and diet were freely available. All animal studies were performed in accordance with the UK Animals (Scientific Procedures) Act 1986. For acute in vivo studies, blood samples were collected from the cut tip of the tail vain of fasted, conscious mice into fluoride/heparin coated glucose microcentrifuge tubes (Sarstedt, Germany) immediately prior to (t=0) and at 15, 30, 60 and 105 min following i.p. injection of glucose ([…]).

[4] = system: male NIH Swiss mice; assay: Acute effects of apelin analogues on voluntary food intake; assay type: in vivo; conditions: 25 nmol/kg i.p., 150 min, FIG. 39
Description: Saline and peptide analogues were administered by intraperitoneal injection and cumulative food intake was monitored at 30, 60, 90 and 120 min after feeding.
Mice were habituated to a daily feeding regime of 3 h/day by progressively reducing the daily feeding period over 3 weeks. This was performed to ensure mice consumed entire daily food intake within 3 h, thereby allowing “peptide” effects to be measured over the known eating period of mice. On days 1 to 7, mice were supplied with food from 10:00 h to 20:00 h, on days 8 to 14, food was presented from 10:00 h to 19:00 h and on days 15 to 21, food was restricted to the 3 h interval from 10:00 h to 13:00 h. This regime was continued throughout the experimental period.
Mice that were habituated to a 3 h daily feeding regime were administered with an i.p. injection of saline (0.9% w/v NaCl) or apelin peptide (1-100 nmol/kg bw) at 10:00 h (n=8). Immediately following injection, food was initially weighed and then presented to the mice and subsequently weighed at 30 min intervals up to 180 min.

[5] = twice daily 25 nmol/kg bw, 28 days
[6] = acute, peptide 25 nmol/kg i.p. with glucose 18 mmol/kg, Table 4
[7] = following a 2 h delay, 25 nmol/kg
[8] = following a 8 h delay, 25 nmol/kg
[9] = acute, alone and in combination, each 25 nmol/kg i.p. with glucose, Table 5

| Degradation fragment, Peak 1 [2] | Rank order of stability [2] | half-life at 263 µg/mL [2] [h] | remaining at 4 h, 263 µg/mL [2] [%] | SMILES | Percentage fat mass compared to high-fat fed controls ([1]; after 28 days) | Glucose tolerance and plasma insulin excursion following an i.p. and oral glucose load [1] | Day of study at which bodyweight was significantly decreased [1, 5] [days] | Rank order on basis of anti-hyperglycaemic efficacy ([3]; acute, Table 4) | Blood glucose as percent of glucose-alone control (lower = stronger glucose lowering) [3, 6] | Insulin secretion, where glucose alone = 100% [3, 6] | Rank order on basis of anti-hyperglycaemic efficacy ([3]; following a 2 h delay) | Blood glucose as percent of glucose-alone control (lower = stronger glucose lowering) [3, 7] | Insulin secretion, where glucose alone = 100% [3, 7] | Rank order on basis of anti-hyperglycaemic efficacy ([3]; following a 8 h delay) | Blood glucose as percent of glucose-alone control (lower = stronger glucose lowering) [3, 8] | Insulin secretion, where glucose alone = 100% [3, 8] | further results |
| --- | --- | --- | --- | --- | --- | --- | --- | --- | --- | --- | --- | --- | --- | --- | --- | --- | --- |
| amide (1-5) | 7 | 10.4 | 85 ± 1.3 | CSCC[C@H](NC(=O)[C@@H]1CCCN1C(=O)CNC(=O)[C@H](CCCCN)NC(=O)[C@H](Cc1c[nH]cn1)NC(=O)[C@H](CO)NC(=O)[C@H](CC(C)C)NC(=O)[C@H](CCCNC(=N)N)NC(=O)[C@@H]1CCCN1C(=O)[C@H](CCCNC(=N)N)NC(=O)[C@@H]1CCC(=O)N1)C(=O)N1CCC[C@H]1C(=O)N[C@@H](Cc1ccccc1)C(N)=O [(pGlu)apelin-13-amide] | significantly reduced | significantly improved | ~20 | 1 | 57% (**) | 159% (***) | 1 | 67% (**) | 146% (***) | 1 | 79% (*) | 120% (*) | Glycated haemoglobin (HbA1c) in comparison to high-fat fed saline treated controls ([1]; after 28 days): reduction; Insulin sensitivity ([1]; after 28 days, insulin 25 U/kg bw): significantly improved; Day of study at which circulating blood glucose began to be significantly reduced and plasma insulin increased [1, 5]: 10 days; Food intake [1, 5]: significantly reduced food intake; Non-fasting plasma insulin levels [1, 5]: significant increase; Degradation fragment, Peak 2 [2]: amide (1-12); Time after injection up to which efficacy is retained ([3]; glucose lowering, high-fat fed mice): up to 8 h |
|  |  |  |  | CCCCCCCCCCCCCCCC(=O)N[C@@H](CCC(=O)NCCCC[C@H](NC(=O)[C@H](Cc1c[nH]cn1)NC(=O)[C@H](CO)NC(=O)[C@H](CC(C)C)NC(=O)[C@H](CCCNC(=N)N)NC(=O)[C@@H]1CCCN1C(=O)[C@H](CCCNC(=N)N)NC(=O)[C@@H](N)CCC(N)=O)C(=O)NCC(=O)N1CCC[C@H]1C(=O)N[C@@H](CCSC)C(=O)N1CCC[C@H]1C(=O)N[C@H](C(=O)O)C(C)C)C(=O)O [Lys^8GluPAL(Val^13)apelin-13] |  |  |  |  |  |  |  |  |  |  |  |  | Increase of food intake, maximal, compared to saline treated control [4]: 9.2% |
| Apelin-13-amide (1-12) | 5 | 11.4 | 80.4 ± 1.9 | CSCC[C@H](NC(=O)[C@@H]1CCCN1C(=O)CNC(=O)[C@H](CCCCN)NC(=O)[C@H](Cc1c[nH]cn1)NC(=O)[C@H](CO)NC(=O)[C@H](CC(C)C)NC(=O)[C@H](CCCNC(=N)N)NC(=O)[C@@H]1CCCN1C(=O)[C@H](CCCNC(=N)N)NC(=O)[C@@H](N)CCC(N)=O)C(=O)N1CCC[C@H]1C(=O)N[C@@H](Cc1ccccc1)C(N)=O [Apelin-13-amide] | failed to reach significance | significantly improved | ~20 | 2 | 65% (**) | 153% (***) | 2 | 73% (**) | 142% (**) | 3 | 88% ^ | 106% | Glucose lowering, where glucose alone = 100% [3, 9]: 65% (**); Insulin secretion, where glucose alone = 100% [3, 9]: 153% (***) |
